Values after ≈ are worked out from the molar mass of the structure shown. Values joined by “and” are separate entries in the source; they are usually repeats but may differ in a detail not shown here. Identical values can stand only once.
Assays:
HL 60 cells = test: MTT antiproliferative assay, leukemia HL 60 cells; settings: Homo sapiens, HL-60, 72 h, read-out: IC50, cytotoxicity, Leukemia HL 60
Excerpt: (§1) Several cancer cell lines including leukemia K562, Molt 4, and HL 60 cells, prostate cancer LNCaP cells, colon cancer DLD-1 cells and breast cancer T-47D cells were used to evaluate the antiproliferative activity.
(§2) The cell lines were obtained from the American Type Culture Collection (ATCC, Manassas, VA, USA). […] Dimethyl sulfoxide (DMSO), 3-(4,5-dimethylthiazol-2-yl)-2,5-diphenyl-tetrazolium bromide (MTT) and all other chemicals were purchased from Sigma-Aldrich (St. Louis, MO, USA).

Ca9-22 cells = test: MTT antiproliferative assay, oral Ca9-22 cells; settings: Homo sapiens, Ca9-22, 72 h, read-out: IC50, cytotoxicity, Oral Ca9-22
Excerpt: as §1, §2

Molt 4 cells [1] = test: ROS generation, carboxy-H2DCFDA flow cytometry; type: cell-based, human; settings: 0.0625 μg/mL
Protocol: Oxidative stress is manifested by ROS overexpression and cannot be balanced by the available antioxidant machinery. Compound 1 can damage the integrity of mitochondria, which are the major production sites of the superoxide anion, […]. The induction of the intracellular formation of ROS by 1 was determined with a carboxyl derivative of fluorescein, carboxy-H2DCFDA dye using flow cytometric analysis. […] In addition, ROS generation could induce ER stress leading to mitochondria-related apoptosis. To further investigate if ER stress is involved in the apoptotic effect induced by 1, Western blot analysis was used to determine the expression of ER stress-related proteins. […] Furthermore, the effect of 1 on the release of intracellular Ca^2+, was evaluated using fluorescent calcium indicator, Fluo 3. […] The induction of the typical executor caspases-3 and −7, as well as γH2AX, was also observed using Western blot analysis (Fig. 7D). To confirm the induction of DNA damage by 1 in Molt 4 cells, a comet assay under neutral electrophoresis condition was utilized. The effect of 1 (0.0625 μg/mL) at different time intervals (0, 3, 6 and 9 h) on the level of nuclear DNA integrity was determined. […] The DNA migration was represented by the induction of DSBs in a time-dependent increase, as indicated by the abnormal tails’ sizes in the comet assay.
These assays were performed as described previously. […] In brief, the treated cells were labeled with a specific fluorescent dye for 30 min. After labeling, cells were washed with PBS and resuspended in PBS at a concentration of 1 × 10^6 cells/mL before analysis via flow cytometry.

Molt 4 cells [2] = test: Neutral comet assay for DNA double-strand breaks; type: cell-based, human; settings: 0.0625 μg/mL; 0, 3, 6 and 9 h; neutral electrophoresis
Protocol: Oxidative stress is manifested by ROS overexpression and cannot be balanced by the available antioxidant machinery. Compound 1 can damage the integrity of mitochondria, which are the major production sites of the superoxide anion, […]. The induction of the intracellular formation of ROS by 1 was determined with a carboxyl derivative of fluorescein, carboxy-H2DCFDA dye using flow cytometric analysis. […] In addition, ROS generation could induce ER stress leading to mitochondria-related apoptosis. To further investigate if ER stress is involved in the apoptotic effect induced by 1, Western blot analysis was used to determine the expression of ER stress-related proteins. […] Furthermore, the effect of 1 on the release of intracellular Ca^2+, was evaluated using fluorescent calcium indicator, Fluo 3. […] The effect of 1 (0.0625 μg/mL) at different time intervals (0, 3, 6 and 9 h) on the level of nuclear DNA integrity was determined. […]
The assay was carried out using a CometAssayTM Kit (Trevigen, Gaithersburg, MD, USA) following the manufacturer’s protocol for the neutral Comet assay. […] The fluorescence images were analyzed using the TriTek Comet Image program to circumscribe the “head” and the “tail” regions of each comet and the integrated fluorescence values of each defined area were recorded. The comet length was measured from the trailing edge of the nucleus to the leading edge of the tail. […]

[3] = system: all leukemia and one lymphoma cell lines; test: MTT assay, summary statement for leukemia and lymphoma lines; settings: read-out: IC50 against all leukemia and one lymphoma cell lines
Excerpt: as §1, §2

Hsp70 in Molt 4 cells = test: Immunofluorescence localization of Hsp70, confocal microscope; type: cell-based, human
Protocol: It was also reported that the induction of Hsp70 is the biomarker of Hsp90 with N-terminal inhibition. Aiming to understand the relation between Hsp90 function and the expression of Hsp70 and 90 clients, we treated Molt 4 cells with 1 (0.0625 μg/mL) for different time intervals. […] The majority of Hsps accumulate in subcellular localizations that determine whether a cell is going to die or differentiate. Erythroblasts with accumulated nuclear Hsp70 continued their differentiation process during the formation of red blood cells. Furthermore, we identified the localization of Hsp70 in response to 1 treatment using immunofluorescence by confocal microscope.
After treatment with the tested compound, cells were fixed with 4% paraformaldehyde in 50 mM HEPES buffer (pH 7.3) for 30 min, and permeabilized for 20 min with 0.2% Trition X-100 in PBS (pH 7.4). To prevent non-specific protein binding, cells were incubated with 5% BSA in PBS containing 0.05% Trition X-100 (T-PBS) for 1 h at room temperature. Cells were then incubated with the primary Hsp70 antibodies (1: 500) for 2 h and further with secondary antibodies (Alexa Fluor […] goat anti-mouse IgG (H + L) (Life Technologies, Carlsbad, CA, USA) diluted at 1:1000 for 1 h at room temperature. After washing with PBS, cells were observed under a FV1000 confocal laser scanning microscope (Olympus, Tokyo, Japan).

Sup-T1 cells = test: MTT antiproliferative assay, lymphoma Sup-T1 cells; settings: Homo sapiens, SUP-T1, 72 h, read-out: IC50, cytotoxicity, Lymphoma Sup-T1

CC[C@@]1(C)CCC[C@]2(C)[C@H]3C[C@@H](OC(=O)C[C@@H](C)O)[C@]4(C)[C@@H](C=O)C(C(C)=O)=CC[C@H]4[C@]3(C)CC[C@@H]12 (relative stereo) [Compound 1, 12β-(3′β-hydroxybutanoyloxy)-20,24-dimethyl-24-oxo-scalara-16-en-25-al]
IC50 (HL 60 cells): 0.01 mg/L (≈ 0.02 µM) | IC50 (Ca9-22 cells): 0.1 mg/L (≈ 0.2 µM) | increase in ROS levels compared with MFI of control (Molt 4 cells [1]; 0.5 h): 2.09 fold | increase in ROS levels compared with MFI of control (Molt 4 cells [1]; 1 h): 1.51 fold | increase in ROS levels compared with MFI of control (Molt 4 cells [1]; 2 h): 1.06 fold | increase in ROS levels compared with MFI of control (Molt 4 cells [1]; 3 h): 1.01 fold | DNA migration (DSBs), comet assay (Molt 4 cells [2]): increased the degree of DNA migration | IC50 [3]: 0.01 µg/mL and 2.08 nM | localization of Hsp70 (Hsp70 in Molt 4 cells): predominantly accumulated in cytosol | IC50 (Sup-T1 cells): 0.13 mg/L (≈ 0.26 µM)

From paper PMC5086919, “Antileukemic Scalarane Sesterterpenoids and Meroditerpenoid from Carteriospongia (Phyllospongia) sp., Induce Apoptosis via Dual Inhibitory Effects on Topoisomerase II and Hsp90” (Scientific Reports, 2016)
